{"source": "patent US20050118253A1", "about": "“Systemic delivery of serum stable plasmid lipid particles for cancer therapy” (Protiva Biotherapeutics, Inc., priority 1998, published 2005)", "system": "MCA-207 fibrosarcoma tumor cells", "assay": "Growth of MCA-207 tumors (Example 11)", "assay_type": "in vivo, C57 mice", "conditions": "ganciclovir with empty liposomes (data not shown)", "experimental": "This example describes the treatment of tumors using the method of the invention. […] The general method is set out in FIG. 8.\n24 female C57 mice were seeded with 100,000 MCA-207 fibrosarcoma tumor cells (provided by S. Rosenberg, National Cancer Institute, Frederick/Bethesda, MD) by intra-dermal injection on day zero. The tumor cells had been cultivated and prepared according to standard techniques using RPMI media with 10% Fetal Bovine Serum (see for example Current Protocols in Molecular Biology). Beginning on day 5, all animals were treated with the lipid/therapeutic nucleic acid formulation listed in the chart, supra. The formulation was delivered intravenously through the tail vein. 80 μg of pINEX-TK10 DNA were injected in a total volume of 200 μL. Treatments were administered on days 5, 7, 9, 11 and 13.\nBeginning on day 5, all animals were treated with ganciclovir twice daily. 1 mg (˜50 mg/kg) were injected intra-peritoneally in a total volume of 200 μL PBS. Treatments continued twice daily for 12 days (see, FIG. 9(A)). Mice were monitored for tumor growth."}
{"compound": "Nc1nc(O)c2ncn(COC(CO)CO)c2n1", "note": "[ganciclovir]", "values": [{"measurement": "Tumor reduction", "result": "no effect"}]}
